# Source: patent publication US6022696A, “Methods of identifying agonists or antagonists of angiotensin IV” (Washington State University Research Foundation, priority 1998, dated 2000)
# Entries after “also recorded” stand apart in the source; their conditions may differ. Like-named read-outs stand apart in the source and are kept apart here. Non-standard residues stand in square brackets, D forms with d. Residues, ends and D or L forms follow the SMILES beside them. No end group written: not given here. NMeI = CC[C@H](C)[C@H](NC)C(=O)O
# Tests used:
# [1] = target: T1, AT4 receptor (Bos taurus, UniProt F1N1Q8); assay: 125I-AIV binding and competition, bovine adrenal cortical membranes
# T1 sequence (F1N1Q8 1-1022): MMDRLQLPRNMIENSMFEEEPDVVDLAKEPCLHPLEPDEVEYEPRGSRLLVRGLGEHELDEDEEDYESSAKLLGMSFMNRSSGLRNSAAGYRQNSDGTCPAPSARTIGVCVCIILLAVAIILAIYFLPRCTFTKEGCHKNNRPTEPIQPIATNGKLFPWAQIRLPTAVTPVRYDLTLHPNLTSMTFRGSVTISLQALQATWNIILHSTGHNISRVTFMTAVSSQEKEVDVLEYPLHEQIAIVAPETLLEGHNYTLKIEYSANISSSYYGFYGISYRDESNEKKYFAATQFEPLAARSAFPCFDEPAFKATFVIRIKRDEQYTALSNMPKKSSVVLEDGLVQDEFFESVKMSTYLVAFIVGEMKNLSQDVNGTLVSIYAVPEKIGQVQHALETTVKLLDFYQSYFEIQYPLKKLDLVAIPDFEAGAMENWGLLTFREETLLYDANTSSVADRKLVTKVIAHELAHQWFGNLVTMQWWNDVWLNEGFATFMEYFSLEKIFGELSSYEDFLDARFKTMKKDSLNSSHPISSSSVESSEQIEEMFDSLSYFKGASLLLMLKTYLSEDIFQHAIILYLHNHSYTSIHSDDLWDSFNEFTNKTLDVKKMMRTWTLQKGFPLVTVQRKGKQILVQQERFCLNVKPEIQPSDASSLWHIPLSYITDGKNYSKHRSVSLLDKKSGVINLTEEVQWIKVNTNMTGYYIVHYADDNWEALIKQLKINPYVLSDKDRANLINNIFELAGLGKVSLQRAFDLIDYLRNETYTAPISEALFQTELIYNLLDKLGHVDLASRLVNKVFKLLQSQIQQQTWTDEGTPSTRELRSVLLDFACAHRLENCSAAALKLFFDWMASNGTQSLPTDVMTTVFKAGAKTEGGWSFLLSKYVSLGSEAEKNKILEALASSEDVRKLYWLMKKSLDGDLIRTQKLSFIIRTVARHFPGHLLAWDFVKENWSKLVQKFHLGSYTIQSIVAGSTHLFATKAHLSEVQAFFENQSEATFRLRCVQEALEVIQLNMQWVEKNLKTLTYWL
# [2] = target: T1, AT4 receptor; assay: 125I-AIV binding and competition, bovine coronary venular endothelial cell (CVEC) membranes
# [3] = Stability of angiotensin peptides in binding assay buffer / assay conditions; type: physicochemical
# [4] = arterial and venous blood in man; cited from earlier work
# [5] = target: T2, AT1 receptor (Bos taurus, UniProt P25104); type: binding, bovine
# T2 construct: from tissue; host or cells: bovine adrenal cortex membranes
# T2 sequence (P25104 1-359): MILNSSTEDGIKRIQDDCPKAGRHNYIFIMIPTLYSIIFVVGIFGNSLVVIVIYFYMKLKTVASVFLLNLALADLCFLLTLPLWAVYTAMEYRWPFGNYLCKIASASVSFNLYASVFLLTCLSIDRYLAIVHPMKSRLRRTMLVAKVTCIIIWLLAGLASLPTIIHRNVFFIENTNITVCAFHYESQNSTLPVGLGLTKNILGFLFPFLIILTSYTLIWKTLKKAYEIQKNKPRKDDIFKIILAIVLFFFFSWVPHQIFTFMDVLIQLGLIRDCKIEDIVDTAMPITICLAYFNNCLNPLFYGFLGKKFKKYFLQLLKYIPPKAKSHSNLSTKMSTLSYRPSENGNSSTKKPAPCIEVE
# [6] = test system: rat kidney; assay: Renal cortical blood flow (laser doppler) after infusion into the renal artery; type: in vivo
# [7] = type: in vitro ADME, rat; details: for metabolic stability, in words: rat kidney membranes / homogenates
# [8] = test system: vascular endothelial cells; assay: EDRF production in vascular endothelial cells; type: cell-based
# Description: Bovine aortic endothelial cells were grown at 37° C. in 35 mm culture plates under 5% CO2 in air in Dulbecco's Modified Eagle's Medium (DMEM) supplemented with 5 μg/ml insulin and 10% (v/v) newborn bovine serum (NBBS). The medium was aspirated 10-12 hours after seeding and replaced with serum-free medium. The medium was again aspirated 10-12 hours later and replaced with either test or control medium. Control medium was DMEM with 5 µg/ml insulin and 2%, 5%, or 10% (v/v) NBBS as indicated. […] The medium was changed every 48 h (i.e., with supportive DMEM medium for the remainder of the experiment).
# [9] = test system: rat; assay: Systemic arterial blood pressure during renal artery infusion
# [10] = target: T1, AT4 receptor; assay: 125I-AIV binding, bovine aortic endothelial cell (BAEC) membranes; details: BAEC membranes preincubated 60 min at 22° C.
# [11] = target: T3, AT1 receptors (Rattus norvegicus, UniProt P25095); assay: Effect of GTPγS on 125I-AII binding, rat vascular smooth muscle cell (RVSMC) membranes; details: dose-dependent
# T3 construct: membrane fractions from rat vascular smooth muscle cells (RVSMC); endogenous in cells; host or cells: rat vascular smooth muscle cell line WKY IV, passage #17, membrane preparation
# T3 sequence (P25095 1-359): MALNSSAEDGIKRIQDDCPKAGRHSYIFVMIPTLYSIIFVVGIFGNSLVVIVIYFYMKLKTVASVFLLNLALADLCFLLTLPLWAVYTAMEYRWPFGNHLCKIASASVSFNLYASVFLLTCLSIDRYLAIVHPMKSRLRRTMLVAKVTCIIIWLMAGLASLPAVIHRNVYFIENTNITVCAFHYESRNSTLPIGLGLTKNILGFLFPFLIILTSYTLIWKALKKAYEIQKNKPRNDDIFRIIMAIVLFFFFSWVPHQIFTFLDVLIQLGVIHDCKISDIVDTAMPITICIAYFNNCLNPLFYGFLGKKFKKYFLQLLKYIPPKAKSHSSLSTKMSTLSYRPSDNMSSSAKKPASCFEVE
# [12] = bovine adrenal cortical AT4 receptor
compound,measurement,setting,value
CC[C@H](C)[C@H](NC)C(=O)N[C@@H](Cc1ccc(O)cc1)C(=O)N[C@H](C(=O)N[C@@H](Cc1c[nH]cn1)C(=O)N1CCC[C@H]1C(=O)N[C@@H](Cc1ccccc1)C(=O)O)[C@@H](C)CC [CH3--I1 YIHPF] (H-[NMeI]YIHPF-OH),decrease in AT4 receptor binding affinity relative to AIV (or stated parent peptide),[1]; [12],67 fold
"CC[C@H](C)[C@H](NC(=O)[C@H](Cc1ccc(O)cc1)NC(=O)[C@@H](NC(=O)[C@@H](N)CCCNC(=N)N)C(C)C)C(=O)N[C@@H](Cc1c[nH]cn1)C(=O)N1CCC[C@H]1C(=O)N[C@@H](Cc1ccccc1)C(=O)O [AIII, Arg1 Val2 Tyr3 Ile4 His5 Pro6 Phe7, reference compound]",decrease in AT4 receptor binding affinity relative to AIV (or stated parent peptide),[1]; [12],about 52 fold
same,increase in Ki over AIV,[2],20 fold
same,hydrolysis in binding buffer,"[3]; 4 h at 37° C., reverse phase HPLC",less than 10%
same,half-life,[4],2.0 min
CGP42112A [reference compound],Ki,[5]; bovine adrenal cortical membranes,> 100 µM
"CC[C@H](C)[C@H](NC(=O)[C@H](Cc1ccc(O)cc1)NC(=O)[C@@H](NC(=O)[C@H](CCCNC(=N)N)NC(=O)[C@@H](N)CC(=O)O)C(C)C)C(=O)N[C@@H](Cc1cnc[nH]1)C(=O)N1CCC[C@H]1C(=O)N[C@@H](Cc1ccccc1)C(=O)O [AII, Asp1 Arg2 Val3 Tyr4 Ile5 His6 Pro7 Phe8, reference compound]",half-life,[4],4.4 min
"CC[C@H](C)[C@H](NC(=O)[C@H](Cc1ccc(O)cc1)NC(=O)[C@@H](N)C(C)C)C(=O)N[C@@H](Cc1cnc[nH]1)C(=O)N1CCC[C@H]1C(=O)N[C@@H](Cc1ccccc1)C(=O)O [AIV, Val1 Tyr2 Ile3 His4 Pro5 Phe6]","change in renal cortical blood flow, in words","[6]; infusion into rat renal artery, 100 pmol/min where stated",profound and long-lasting increase in blood flow; also recorded: equally dramatic increase in flow
same,agonist / antagonist activity at the AT4 receptor,[6]; judged from renal blood flow response compared with AIV,full agonistic activity
same,effect of preinfusion on agonist-induced change in renal blood flow,[6]; preinfusion before the named agonist,completely blocked the constrictive action of AII
same,"metabolic stability, in words",[7],rapidly degraded
same,production of endothelial cell relaxing factor (EDRF),[8],stimulating production of endothelial cell relaxing factor (EDRF)
same,half-life,[4],1.9 min
same,effect on arterial blood pressure,[9],not accompanied by alterations in mean arterial pressure
"Phe2 Tyr6 AIV: positions of Phe and Tyr reversed, SEQ. ID. NO. 36 (VPIHYF)","AT4 receptor binding affinity, in words",[1]; [12],very low binding affinity
"125I-AII: 125I-radiolabeled AII (DRVYIHPF; also: 125I radiolabel; UniProt P01019 25-32, looked up)",overall hydrolysis under conditions of the assay,[3]; bovine adrenal cortical membrane binding assay,less than 2%
Nc1nc2c(ncn2[C@@H]2O[C@H](COP(=O)(O)OP(=O)(O)OP(O)(O)=S)[C@@H](O)[C@H]2O)c(=O)[nH]1 [GTPγS],effect on 125I-AIV binding to AT4 receptors,[1],not altered
same,effect on 125I-AIV binding to AT4 receptors,[10],no effect; also recorded: did not inhibit (or alter) binding
same,effect on 125I-AII binding to AT1 receptors,[11],inhibited
"CC(C)[C@H](N)CN[C@@H](Cc1ccc(O)cc1)C(=O)N[C@H](CN[C@@H](Cc1c[nH]cn1)C(=O)N1CCC[C@H]1C(=O)N[C@@H](Cc1ccccc1)C(=O)O)C(C)C [Val1 Val3 AIV, ^+ H3 N-Val(CH2 NH)Tyr-Val(CH2 NH)-His-Pro-Phe-COO--]","metabolic stability, in words",[7]; listed as Val(I)Val(3) AIV,totally resistant to enzymatic degradation
same,"metabolic stability, in words",[7]; listed as divalinal AIV,enhanced metabolic stability
same,peptide remaining intact,"[7]; rat kidney membranes, room temperature, after 4 hr of incubation",100%
same,effect on arterial blood pressure,[9],did not alter blood pressure or renal blood flow
CC[C@H](C)[C@H](NC(=O)[C@@H](N)Cc1ccc(O)cc1)C(=O)N[C@@H](Cc1cnc[nH]1)C(=O)N1CCC[C@H]1C(=O)N[C@@H](Cc1ccccc1)C(=O)O [AII(4-8)] (H-YIHPF-OH),Ki,[5],> 1 µM
same,half-life,[4],2.4 min
CC[C@H](C)[C@H](NC(=O)[C@H](Cc1ccc(O)cc1)NC(=O)[C@@H](N)CC(=O)O)C(=O)N[C@@H](Cc1c[nH]cn1)C(=O)N1CCC[C@H]1C(=O)N[C@@H](Cc1ccccc1)C(=O)O [DYIHPF] (H-DYIHPF-OH),Kd,[1]; read-out: Kd of analog for the AT4 receptor,> 1000 nM
